# Tests used:
# Assay in all cases: KINOMEscan
# Format in all cases: binding
# [1] = target: T1, RPS6KA2(Kin.Dom.2-C-terminal) (Homo sapiens, UniProt Q15349); details: 1 uM
# T1 construct: RPS6KA2(Kin.Dom.2-C-terminal); purchased Ambit KINOMEscan (DiscoverX)
# How it was run: (§1)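 Compounds were each tested at a single concentration of 1 μM in a binding-based kinase panel.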
# [2] = target: T2, ABL1(F317L)-nonphosphorylated (Homo sapiens, UniProt P00519, F317L); details: 1 uM
# T2 construct: purchased Ambit KINOMEscan (DiscoverX)
# How it was run: as §1
# [3] = target: T3, ABL1(F317L)-phosphorylated (Homo sapiens, UniProt P00519, F317L); details: 1 uM
# T3 construct: purchased Ambit KINOMEscan (DiscoverX)
# How it was run: as §1
# BLK = target: T4, BLK (Homo sapiens, UniProt P51451); details: 1 uM
# T4 construct: purchased Ambit KINOMEscan (DiscoverX)
# How it was run: as §1
# CAMK2B = target: T5, CAMK2B (Homo sapiens, UniProt Q13554); details: 1 uM
# T5 construct: purchased Ambit KINOMEscan (DiscoverX)
# How it was run: as §1
# CASK = target: T6, CASK (Homo sapiens, UniProt O14936); details: 1 uM
# T6 construct: purchased Ambit KINOMEscan (DiscoverX)
# How it was run: as §1
# CDK5 = target: T7, CDK5 (Homo sapiens, UniProt Q00535); details: CDK5, 1 uM
# T7 construct: purchased Ambit KINOMEscan (DiscoverX)
# How it was run: as §1
# CDKL1 = target: T8, CDKL1 (Homo sapiens, UniProt Q00532); details: CDKL1, 1 uM
# T8 construct: purchased Ambit KINOMEscan (DiscoverX)
# T8 sequence (Q00532 whole entry): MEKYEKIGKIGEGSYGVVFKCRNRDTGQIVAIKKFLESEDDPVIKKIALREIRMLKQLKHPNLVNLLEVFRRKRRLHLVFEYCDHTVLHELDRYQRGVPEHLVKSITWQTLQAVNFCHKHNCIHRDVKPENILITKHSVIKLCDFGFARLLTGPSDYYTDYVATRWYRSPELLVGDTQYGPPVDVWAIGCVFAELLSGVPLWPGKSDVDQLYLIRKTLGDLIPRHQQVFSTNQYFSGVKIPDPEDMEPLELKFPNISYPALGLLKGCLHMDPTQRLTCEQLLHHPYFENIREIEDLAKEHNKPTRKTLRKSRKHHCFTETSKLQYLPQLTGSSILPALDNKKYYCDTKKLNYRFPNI
# How it was run: as §1
# CLK1 = target: T9, CLK1 (Homo sapiens, UniProt P49759); details: CLK1, 1 uM
# T9 construct: purchased Ambit KINOMEscan (DiscoverX)
# T9 sequence (P49759 whole entry): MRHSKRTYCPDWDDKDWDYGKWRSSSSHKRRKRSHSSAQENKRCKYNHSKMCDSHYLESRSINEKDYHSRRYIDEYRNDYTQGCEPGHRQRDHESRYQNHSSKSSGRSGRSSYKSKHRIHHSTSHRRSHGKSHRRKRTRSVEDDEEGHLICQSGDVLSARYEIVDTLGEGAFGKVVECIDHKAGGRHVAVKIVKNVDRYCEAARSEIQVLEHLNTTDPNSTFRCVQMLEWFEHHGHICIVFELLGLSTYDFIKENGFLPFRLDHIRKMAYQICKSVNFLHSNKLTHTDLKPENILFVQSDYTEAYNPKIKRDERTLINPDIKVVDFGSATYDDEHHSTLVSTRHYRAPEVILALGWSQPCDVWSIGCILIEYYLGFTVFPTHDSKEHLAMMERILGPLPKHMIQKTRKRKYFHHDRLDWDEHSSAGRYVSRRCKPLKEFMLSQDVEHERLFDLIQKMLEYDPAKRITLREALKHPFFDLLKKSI
# How it was run: as §1
# CSNK1A1L = target: T10, CSNK1A1L (Homo sapiens, UniProt Q8N752); details: 1 uM
# T10 construct: purchased Ambit KINOMEscan (DiscoverX)
# T10 sequence (Q8N752 whole entry): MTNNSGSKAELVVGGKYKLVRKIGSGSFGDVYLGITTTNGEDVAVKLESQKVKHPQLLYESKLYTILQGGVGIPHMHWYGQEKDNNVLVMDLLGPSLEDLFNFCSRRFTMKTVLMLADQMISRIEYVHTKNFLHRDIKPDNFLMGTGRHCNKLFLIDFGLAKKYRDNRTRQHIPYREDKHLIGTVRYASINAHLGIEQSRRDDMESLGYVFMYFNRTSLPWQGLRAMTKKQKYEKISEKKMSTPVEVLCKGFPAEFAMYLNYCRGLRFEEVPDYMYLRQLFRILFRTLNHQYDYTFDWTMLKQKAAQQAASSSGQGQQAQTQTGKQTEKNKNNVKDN
# How it was run: as §1
# [4] = target: T11, EGFR(L747-S752del, P753S) (Homo sapiens, UniProt P00533, DEL747-752/P753S); details: 1 uM
# T11 construct: purchased Ambit KINOMEscan (DiscoverX)
# T11 sequence (P00533 with tags, fused parts or gaps DEL747-752/P753S limits assumed): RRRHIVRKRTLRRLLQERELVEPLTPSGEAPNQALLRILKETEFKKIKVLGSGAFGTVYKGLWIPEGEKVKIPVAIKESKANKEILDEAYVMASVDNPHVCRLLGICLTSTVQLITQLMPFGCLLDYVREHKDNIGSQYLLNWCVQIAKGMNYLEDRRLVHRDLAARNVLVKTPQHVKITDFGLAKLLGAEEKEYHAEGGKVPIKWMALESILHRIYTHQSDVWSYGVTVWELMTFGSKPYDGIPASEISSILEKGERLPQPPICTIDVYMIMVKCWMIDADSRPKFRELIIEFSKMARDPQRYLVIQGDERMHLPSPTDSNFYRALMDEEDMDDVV
# How it was run: as §1
# EGFR(L858R,T790M) = target: T12, EGFR(L858R,T790M) (Homo sapiens, UniProt P00533, L858R/T790M); details: 1 uM
# T12 construct: purchased Ambit KINOMEscan (DiscoverX)
# How it was run: as §1
# EIF2AK1 = target: T13, EIF2AK1 (Homo sapiens, UniProt Q9BQI3); details: EIF2AK1, 1 uM
# T13 construct: purchased Ambit KINOMEscan (DiscoverX)
# How it was run: as §1
# FLT3(K663Q) = target: T14, FLT3(K663Q) (Homo sapiens, UniProt P36888, K663Q); details: 1 uM
# T14 construct: purchased Ambit KINOMEscan (DiscoverX)
# How it was run: as §1
# FLT3(R834Q) = target: T15, FLT3(R834Q) (Homo sapiens, UniProt P36888, R834Q); details: 1 uM
# T15 construct: purchased Ambit KINOMEscan (DiscoverX)
# How it was run: as §1
# IRAK4 = target: T16, IRAK4 (Homo sapiens, UniProt Q9NWZ3); details: IRAK4, 1 uM
# T16 construct: purchased Ambit KINOMEscan (DiscoverX)
# How it was run: as §1
# KIT(A829P) = target: T17, KIT(A829P) (Homo sapiens, UniProt P10721, A829P); details: 1 uM
# T17 construct: purchased Ambit KINOMEscan (DiscoverX)
# How it was run: as §1
# LRRK2 = target: T18, LRRK2 (Homo sapiens, UniProt Q5S007); details: LRRK2, 1 uM
# T18 construct: purchased Ambit KINOMEscan (DiscoverX)
# How it was run: as §1
# LRRK2(G2019S) = target: T19, LRRK2(G2019S) (Homo sapiens, UniProt Q5S007, G2019S); details: 1 uM
# T19 construct: purchased Ambit KINOMEscan (DiscoverX)
# How it was run: as §1
# MKK7 = target: T20, MKK7 (Homo sapiens, UniProt O14733); details: MKK7, 1 uM
# T20 construct: purchased Ambit KINOMEscan (DiscoverX)
# T20 sequence (O14733 whole entry): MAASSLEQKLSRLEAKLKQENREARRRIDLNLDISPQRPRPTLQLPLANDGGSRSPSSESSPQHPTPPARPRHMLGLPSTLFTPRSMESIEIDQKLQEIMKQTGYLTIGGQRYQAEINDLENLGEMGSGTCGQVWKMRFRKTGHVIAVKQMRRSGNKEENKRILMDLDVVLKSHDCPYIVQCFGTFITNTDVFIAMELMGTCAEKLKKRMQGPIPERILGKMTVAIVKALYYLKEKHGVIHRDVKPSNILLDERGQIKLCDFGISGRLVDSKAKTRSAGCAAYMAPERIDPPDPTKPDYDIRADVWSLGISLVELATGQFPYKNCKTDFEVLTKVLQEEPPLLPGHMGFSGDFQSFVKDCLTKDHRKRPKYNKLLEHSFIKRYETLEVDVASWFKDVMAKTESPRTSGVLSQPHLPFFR
# How it was run: as §1
# MST1R = target: T21, MST1R (Homo sapiens, UniProt Q04912); details: 1 uM
# T21 construct: purchased Ambit KINOMEscan (DiscoverX)
# How it was run: as §1
# NEK11 = target: T22, NEK11 (Homo sapiens, UniProt Q8NG66); details: NEK11, 1 uM
# T22 construct: purchased Ambit KINOMEscan (DiscoverX)
# How it was run: as §1
# PFCDPK1(P.falciparum) = target: T23, PFCDPK1(P.falciparum) (Plasmodium falciparum, UniProt P62344); details: 1 uM
# T23 construct: purchased Ambit KINOMEscan (DiscoverX)
# How it was run: as §1
# PFPK5(P.falciparum) = target: T24, PFPK5(P.falciparum) (Plasmodium falciparum, UniProt P61075); details: 1 uM
# T24 construct: purchased Ambit KINOMEscan (DiscoverX)
# How it was run: as §1
# PIK3CA(I800L) = target: T25, PIK3CA(I800L) (Homo sapiens, UniProt P42336, I800L); details: 1 uM
# T25 construct: purchased Ambit KINOMEscan (DiscoverX)
# T25 sequence (P42336 whole entry I800L): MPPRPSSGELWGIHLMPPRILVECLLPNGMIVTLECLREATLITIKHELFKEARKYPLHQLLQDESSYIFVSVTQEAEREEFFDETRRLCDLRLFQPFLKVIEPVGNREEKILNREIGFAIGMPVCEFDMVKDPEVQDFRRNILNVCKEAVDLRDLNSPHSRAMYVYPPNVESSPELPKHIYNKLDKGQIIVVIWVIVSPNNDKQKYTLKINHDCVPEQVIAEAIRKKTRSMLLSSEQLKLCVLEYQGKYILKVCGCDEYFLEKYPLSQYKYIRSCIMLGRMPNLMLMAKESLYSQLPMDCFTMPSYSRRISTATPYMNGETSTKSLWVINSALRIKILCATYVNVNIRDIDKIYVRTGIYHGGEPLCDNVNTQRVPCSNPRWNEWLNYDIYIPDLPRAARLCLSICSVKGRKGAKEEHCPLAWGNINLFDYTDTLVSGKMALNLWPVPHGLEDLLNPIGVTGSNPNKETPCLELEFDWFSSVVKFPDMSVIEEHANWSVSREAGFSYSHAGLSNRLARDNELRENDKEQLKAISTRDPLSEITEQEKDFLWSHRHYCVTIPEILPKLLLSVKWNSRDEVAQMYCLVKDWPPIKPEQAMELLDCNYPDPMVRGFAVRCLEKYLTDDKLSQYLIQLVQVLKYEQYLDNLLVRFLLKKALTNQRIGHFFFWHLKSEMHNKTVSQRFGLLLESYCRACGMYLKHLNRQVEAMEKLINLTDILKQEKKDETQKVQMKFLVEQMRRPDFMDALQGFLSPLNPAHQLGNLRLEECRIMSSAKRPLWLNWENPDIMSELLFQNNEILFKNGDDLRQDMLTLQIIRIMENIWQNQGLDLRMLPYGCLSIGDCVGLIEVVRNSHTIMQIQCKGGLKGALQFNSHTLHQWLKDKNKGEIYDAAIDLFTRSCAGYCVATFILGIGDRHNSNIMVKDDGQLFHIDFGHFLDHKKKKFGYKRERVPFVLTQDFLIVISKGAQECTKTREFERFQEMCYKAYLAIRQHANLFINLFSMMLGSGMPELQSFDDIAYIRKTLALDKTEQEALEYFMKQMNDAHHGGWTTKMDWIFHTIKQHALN
# How it was run: as §1
# PIP5K1C = target: T26, PIP5K1C (Homo sapiens, UniProt O60331); details: 1 uM
# T26 construct: purchased Ambit KINOMEscan (DiscoverX)
# How it was run: as §1
# PIP5K2C = target: T27, PIP5K2C (Homo sapiens, UniProt Q8TBX8); details: 1 uM
# T27 construct: purchased Ambit KINOMEscan (DiscoverX)
# How it was run: as §1
# RET = target: T28, RET (Homo sapiens, UniProt P07949); details: 1 uM
# T28 construct: purchased Ambit KINOMEscan (DiscoverX)
# T28 sequence (P07949 29-1114): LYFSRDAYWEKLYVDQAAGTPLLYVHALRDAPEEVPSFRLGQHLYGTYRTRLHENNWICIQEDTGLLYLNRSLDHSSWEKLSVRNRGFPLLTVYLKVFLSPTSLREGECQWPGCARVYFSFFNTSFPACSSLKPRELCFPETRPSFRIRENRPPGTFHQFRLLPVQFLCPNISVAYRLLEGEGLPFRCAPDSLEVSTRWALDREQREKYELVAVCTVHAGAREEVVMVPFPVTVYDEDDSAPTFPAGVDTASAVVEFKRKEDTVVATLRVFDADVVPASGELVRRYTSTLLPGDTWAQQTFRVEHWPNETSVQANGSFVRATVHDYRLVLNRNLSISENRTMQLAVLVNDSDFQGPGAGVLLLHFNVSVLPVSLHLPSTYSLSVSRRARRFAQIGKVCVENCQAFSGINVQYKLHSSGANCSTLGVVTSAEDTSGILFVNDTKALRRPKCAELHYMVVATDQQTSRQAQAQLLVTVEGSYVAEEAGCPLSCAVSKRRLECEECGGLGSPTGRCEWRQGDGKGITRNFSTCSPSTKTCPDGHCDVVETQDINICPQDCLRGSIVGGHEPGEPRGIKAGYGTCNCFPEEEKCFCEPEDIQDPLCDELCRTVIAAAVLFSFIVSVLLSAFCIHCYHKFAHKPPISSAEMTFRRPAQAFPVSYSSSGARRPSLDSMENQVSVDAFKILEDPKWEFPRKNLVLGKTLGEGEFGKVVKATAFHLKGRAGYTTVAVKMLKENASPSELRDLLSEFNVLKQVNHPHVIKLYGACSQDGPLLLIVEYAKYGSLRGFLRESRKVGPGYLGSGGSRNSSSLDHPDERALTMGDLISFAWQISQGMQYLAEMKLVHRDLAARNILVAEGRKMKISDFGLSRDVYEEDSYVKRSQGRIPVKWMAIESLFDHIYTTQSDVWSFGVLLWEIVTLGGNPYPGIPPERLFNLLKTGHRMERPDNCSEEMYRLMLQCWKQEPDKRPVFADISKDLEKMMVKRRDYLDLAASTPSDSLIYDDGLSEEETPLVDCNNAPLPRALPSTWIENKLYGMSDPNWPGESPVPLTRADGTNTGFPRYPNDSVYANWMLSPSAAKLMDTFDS
# How it was run: as §1
# RET(V804L) = target: T29, RET(V804L) (Homo sapiens, UniProt P07949, V804L); details: 1 uM
# T29 construct: purchased Ambit KINOMEscan (DiscoverX)
# How it was run: as §1
# [5] = target: T30, RPS6KA3(Kin.Dom.1-N-terminal) (Homo sapiens, UniProt P51812); details: 1 uM
# T30 construct: RPS6KA3(Kin.Dom.1-N-terminal); purchased Ambit KINOMEscan (DiscoverX)
# T30 sequence (P51812 1-397 limits assumed): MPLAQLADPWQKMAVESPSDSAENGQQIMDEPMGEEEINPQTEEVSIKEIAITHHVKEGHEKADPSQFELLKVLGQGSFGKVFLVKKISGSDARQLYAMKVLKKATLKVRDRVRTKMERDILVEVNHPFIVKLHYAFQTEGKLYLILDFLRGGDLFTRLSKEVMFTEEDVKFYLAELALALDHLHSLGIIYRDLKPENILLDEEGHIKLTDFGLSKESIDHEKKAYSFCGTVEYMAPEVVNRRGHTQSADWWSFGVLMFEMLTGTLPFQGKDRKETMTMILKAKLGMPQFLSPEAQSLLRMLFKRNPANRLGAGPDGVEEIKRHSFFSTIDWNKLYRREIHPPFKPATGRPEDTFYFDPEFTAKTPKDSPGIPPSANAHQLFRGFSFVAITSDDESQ
# How it was run: as §1
# [6] = target: T31, RPS6KA6(Kin.Dom.1-N-terminal) (Homo sapiens, UniProt Q9UK32); details: 1 uM
# T31 construct: RPS6KA6(Kin.Dom.1-N-terminal); purchased Ambit KINOMEscan (DiscoverX)
# How it was run: as §1
# SNRK = target: T32, SNRK (Homo sapiens, UniProt Q9NRH2); details: 1 uM
# T32 construct: purchased Ambit KINOMEscan (DiscoverX)
# How it was run: as §1
# SRC = target: T33, SRC (Homo sapiens, UniProt P12931); details: 1 uM
# T33 construct: purchased Ambit KINOMEscan (DiscoverX)
# T33 sequence (P12931 whole entry): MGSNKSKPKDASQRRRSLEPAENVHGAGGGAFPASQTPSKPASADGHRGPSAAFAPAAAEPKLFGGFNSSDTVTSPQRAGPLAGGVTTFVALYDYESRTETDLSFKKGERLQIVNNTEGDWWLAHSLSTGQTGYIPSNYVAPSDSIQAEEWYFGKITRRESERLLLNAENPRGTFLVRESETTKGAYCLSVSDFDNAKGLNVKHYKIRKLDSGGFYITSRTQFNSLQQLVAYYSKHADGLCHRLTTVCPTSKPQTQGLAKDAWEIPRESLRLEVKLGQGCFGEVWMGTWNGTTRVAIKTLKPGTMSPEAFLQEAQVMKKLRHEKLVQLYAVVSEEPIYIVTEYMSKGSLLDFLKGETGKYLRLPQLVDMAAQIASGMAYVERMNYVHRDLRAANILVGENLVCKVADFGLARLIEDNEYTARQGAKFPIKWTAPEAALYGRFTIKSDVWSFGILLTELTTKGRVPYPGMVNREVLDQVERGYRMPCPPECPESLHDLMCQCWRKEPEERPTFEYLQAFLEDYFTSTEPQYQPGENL
# How it was run: as §1
# TRKA = target: T34, TRKA (Homo sapiens, UniProt P04629); details: 1 uM
# T34 construct: purchased Ambit KINOMEscan (DiscoverX)
# How it was run: as §1
# VRK2 = target: T35, VRK2 (Homo sapiens, UniProt Q86Y07); details: VRK2, 1 uM
# T35 construct: purchased Ambit KINOMEscan (DiscoverX)
# How it was run: as §1
# YANK1 = target: T36, YANK1 (Homo sapiens, UniProt Q8WU08); details: YANK1, 1 uM
# T36 construct: purchased Ambit KINOMEscan (DiscoverX)
# How it was run: as §1
# ZAK = target: T37, ZAK (Homo sapiens, UniProt Q9NYL2); details: 1 uM
# T37 construct: purchased Ambit KINOMEscan (DiscoverX)
# How it was run: as §1
# p38-delta = target: T38, p38-delta (Homo sapiens, UniProt O15264); details: 1 uM
# T38 construct: purchased Ambit KINOMEscan (DiscoverX)
# How it was run: as §1
smiles,measurement,setting,value
"COc1ccc(-c2cc3nccn3c(Nc3ncccc3C(N)=O)n2)cc1OC.Cl.Cl [BAY61-3606, 2-[7-(3,4-dimethoxyphenyl)-imidazo [1,2-c]pyrimidin-5-ylamino] nicotinamide dihydrochloride, reference compound]",% binding compared to no inhibitor control,[1],89%
COc1ccccc1Nc1nc(-c2ccc(OC)c(OC)c2)cc2nccn12 [BAY derivative 6],% binding compared to no inhibitor control,[2],100%
same,% binding compared to no inhibitor control,[3],100%
same,% binding compared to no inhibitor control,BLK,43%
same,% binding compared to no inhibitor control,CAMK2B,100%
same,% binding compared to no inhibitor control,CASK,100%
same,% binding compared to no inhibitor control,CDK5,100%
same,% binding compared to no inhibitor control,CDKL1,100%
same,% binding compared to no inhibitor control,CLK1,100%
same,% binding compared to no inhibitor control,CSNK1A1L,100%
same,% binding compared to no inhibitor control,[4],76%
same,% binding compared to no inhibitor control,"EGFR(L858R,T790M)",85%
same,% binding compared to no inhibitor control,EIF2AK1,88%
same,% binding compared to no inhibitor control,FLT3(K663Q),63%
same,% binding compared to no inhibitor control,FLT3(R834Q),100%
same,% binding compared to no inhibitor control,IRAK4,100%
same,% binding compared to no inhibitor control,KIT(A829P),35%
same,% binding compared to no inhibitor control,LRRK2,95%
same,% binding compared to no inhibitor control,LRRK2(G2019S),92%
same,% binding compared to no inhibitor control,MKK7,86%
same,% binding compared to no inhibitor control,MST1R,100%
same,% binding compared to no inhibitor control,NEK11,84%
same,% binding compared to no inhibitor control,PFCDPK1(P.falciparum),67%
same,% binding compared to no inhibitor control,PFPK5(P.falciparum),100%
same,% binding compared to no inhibitor control,PIK3CA(I800L),100%
same,% binding compared to no inhibitor control,PIP5K1C,71%
same,% binding compared to no inhibitor control,PIP5K2C,99%
same,% binding compared to no inhibitor control,RET,100%
same,% binding compared to no inhibitor control,RET(V804L),95%
same,% binding compared to no inhibitor control,[5],96%
same,% binding compared to no inhibitor control,[6],70%
same,% binding compared to no inhibitor control,SNRK,94%
same,% binding compared to no inhibitor control,SRC,51%
same,% binding compared to no inhibitor control,TRKA,98%
same,% binding compared to no inhibitor control,VRK2,88%
same,% binding compared to no inhibitor control,YANK1,100%
same,% binding compared to no inhibitor control,ZAK,92%
same,% binding compared to no inhibitor control,p38-delta,100%

# Reference: article PMC3399817 (PLoS ONE, 2012)
